± gives the expanded uncertainty stated by the source.
Tests used:
[1] = refractive index (Na D-line) (dimensionless); conditions: 101.33 kPa, Liquid, Standard Abbe refractometry
[2] = for surface tension liquid-gas: Maximal bubble pressure; for mass density: 101.33 kPa, Liquid, Vibrating tube method

CCOCCn1cc[n+](C)c1.[Br-] [1-(2-ethoxyethyl)-3-methylimidazolium bromide]
Conditions | mass density, [2] [kg/m3] | refractive index, [1] | surface tension liquid-gas, [2] [mN/m]
288.15 K | 1360.32 ± 2.4 | 1.5473 ± 0.0031 | 50.9 ± 0.5
293.15 K | 1356.56 ± 2.4 | 1.5458 ± 0.0031 | 50.5 ± 0.5
298.15 K | 1352.79 ± 2.4 | 1.5441 ± 0.0031 | 50.2 ± 0.5
303.15 K | 1349.05 ± 2.4 | 1.5426 ± 0.0031 | 49.8 ± 0.5
308.15 K | 1345.33 ± 2.4 | 1.5409 ± 0.0031 | 49.5 ± 0.5
313.15 K | 1341.63 ± 2.4 | 1.5391 ± 0.0031 | 49.2 ± 0.5
318.15 K | 1337.99 ± 2.4 | 1.5376 ± 0.0031 | 48.9 ± 0.5
323.15 K | 1334.35 ± 2.4 | 1.5357 ± 0.0031 | 48.6 ± 0.5
328.15 K | 1330.24 ± 2.4 | 1.5341 ± 0.0031 | 48.3 ± 0.5

CCOCCn1cc[n+](C)c1.[Cl-] [1-(2-ethoxyethyl)-3-methylimidazolium chloride]
Conditions | mass density, [2] [kg/m3] | refractive index, [1] | surface tension liquid-gas, [2] [mN/m]
288.15 K | 1143.13 ± 2.3 | 1.5269 ± 0.0031 | 47.8 ± 0.5
293.15 K | 1139.98 ± 2.3 | 1.5255 ± 0.0031 | 47.3 ± 0.5
298.15 K | 1136.83 ± 2.3 | 1.524 ± 0.0031 | 46.9 ± 0.5
303.15 K | 1133.69 ± 2.3 | 1.5225 ± 0.0031 | 46.5 ± 0.5
308.15 K | 1130.57 ± 2.3 | 1.5206 ± 0.0031 | 46 ± 0.5
313.15 K | 1127.45 ± 2.3 | 1.5184 ± 0.0031 | 45.6 ± 0.5
318.15 K | 1124.37 ± 2.3 | 1.5159 ± 0.0031 | 45.2 ± 0.5
323.15 K | 1121.28 ± 2.3 | 1.5142 ± 0.0031 | 44.8 ± 0.5
328.15 K | 1118.21 ± 2.3 | 1.5119 ± 0.0031 | 44.3 ± 0.5

COCCn1cc[n+](C)c1.[Cl-] [1-(2-methoxyethyl)-3-methylimidazolium chloride]
Conditions | mass density, [2] [kg/m3] | refractive index, [1] | surface tension liquid-gas, [2] [mN/m]
288.15 K | 1168.6 ± 2.3 | 1.5201 ± 0.0031 | 49.6 ± 0.5
293.15 K | 1165.46 ± 2.3 | 1.5185 ± 0.0031 | 49.2 ± 0.5
298.15 K | 1162.31 ± 2.3 | 1.516 ± 0.0031 | 48.7 ± 0.5
303.15 K | 1159.17 ± 2.3 | 1.5142 ± 0.0031 | 48.4 ± 0.5
308.15 K | 1156.04 ± 2.3 | 1.5121 ± 0.0031 | 48 ± 0.5
313.15 K | 1152.91 ± 2.3 | 1.5103 ± 0.0031 | 47.6 ± 0.5
318.15 K | 1149.78 ± 2.3 | 1.5083 ± 0.0031 | 47.1 ± 0.5
323.15 K | 1146.63 ± 2.3 | 1.5069 ± 0.0031 | 46.7 ± 0.5
328.15 K | 1143.27 ± 2.3 | 1.5046 ± 0.0031 | 46.2 ± 0.5

Source: the NIST ThermoML archive (doi:10.1016/j.jct.2019.06.027)
